# Test results published in patent EP0123485A1, “Colon-specific prodrug, the preparation and uses thereof” (priority 1983, dated 1984).
# Like-named read-outs stand apart in the source and are kept apart here.
# What was measured:
# [1] = Rate of hydrolysis in homogenized cecal contents; conditions: cecal contents; 1.0 mM prodrug, 37 C; release of free steroid by HPLC
# Description: (§1) (The entire small intestine was divided into two, equal length segments to give PSI and DSI.) Gastrointestinal contents were obtained from male, Sprague-Dawley rats (300-400 g) which had been maintained on a stock diet (Purina rat chow) and water ad libitum. The intestinal contents of each section were pooled from four animals for each assay. […] Following removal, the contents were quickly weighed, then diluted to 100 milliliters (stomach, PSI, and DSI) or 200 milliliters (cecum) with cold 0.01 M phosphate buffer, pH 7.0. […] Homogenates were then stored on ice (ca 30 min). […] The reaction was run at 37 °C in a shaking water bath. The reaction was stopped after 10, 20, or 30 min by addition of 0.2 N NaOH (0.25 milliliters).
# (§2) Stomach and PSI contents were diluted to 50 mL with 0.01 M phosphate buffer, pH 7.0, DSI contents to 25 mL, and cecal contents to 200 mL, prior to homogenization. The homogenates (2.1 mL of stomach, PSI, and DSI and 1.7 mL of cecum) were added to the appropriate substrate solution (0.01 M phosphate buffer, pH 7.0) to give 1.0 mM substrate in a total volume of 2.5 mL. At various times up to 30 min, aliquots (0.3 mL) were removed and quenched with MeOH (4.7 mL). After centrifugation (5,000 g, 10 min), the samples were diluted (1:1) with 0.01 M KH2PO4 and 20 microliters of the resulting solution was injected directly onto the HPLC column for analysis.
# [2] = KM(app) and Vmax determinations (Eadie-Hofstee plots); assay type: in vitro ADME, rat; conditions: prodrug 0.5-48 micromolar, 0.8 mL cecal homogenate, 15 min, 37 C, release of free steroid by HPLC
# Procedure: KM(app) and VMax Determinations. The KM(app)-Vmax for the hydrolysis of p-NP-glc and p-NP-gal were determined using pooled cecal homogenates (200 mL) as described above. A range of substrate (56-1000 micromolar; final volume 2.25 mL) concentrations, spanning their apparent KM, was used for each reaction. The amount of cecal homogenate used was 0.04 mL. Velocities were obtained, in duplicate, at 37 °C in a shaking water bath and the reaction stopped by addition of 0.2 N NaOH (0.25 mL) after 15 min. Release of p-nitrophenol was measured spectrophotometrically at 403 nm. Eadie-Hofstee plots were used to determine the KM(app) (micromolar) and Vmax (micromolar/min/g) of both reactions. The wet weight (g), measured immediately after removal and pooling, was used throughout.
# Again, cecal contents from four rats were pooled, weighed, diluted (100 mL, 0.01 M phosphate buffer, pH 7.0) and homogenized. A range of substrate concentrations (0.5-48 micromolar, final volume 2.5 mL) spanning the apparent KM, was used for each reaction. The amount of cecal homogenate used was 0.8 mL. Reactions were run, in duplicate, at 37°C in a shaking water bath. After 15 min, the reactions were stopped by removing aliquots (0.3 mL) and quenching them with MeOH (4.7 mL). […] Again, Eadie-Hofstee plots were used to determine the KM(app) and VMax.
# [3] = Rate of hydrolysis in homogenized stomach contents; conditions: 1.0 mM prodrug, 37 C, release of free steroid by HPLC
# [4] = Rate of hydrolysis in homogenized proximal small intestine contents; conditions: PSI contents; 1.0 mM prodrug, 37 C; release of free steroid by HPLC
# [5] = Incubation with homogenized rat feces; assay type: in vitro ADME
# Procedure: Glucosides 1 and 2 (5.0 mg) were also incubated at 37 °C with homogenized rat feces (0.5 g/10 milliliters 0.01 M phosphate buffer, pH 7.5). The feces were obtained from rats maintained on a high cellulose diet. […] Aliquots (0.2 milliliters) were removed and quenched with MeOH (3.66 milliliters). After centrifugation (5,000g, 10 min), the samples were passed through membrane filters (0.45 micrometer pore, Versapor 450, Gelman Sciences, Inc.). They were then diluted (1:1) with 0.01 M KH2PO4. Twenty microliters of the resulting solution were injected directly onto the HPLC column for analysis.
# [6] = Rate of hydrolysis in homogenized distal small intestine contents; conditions: for Sp. act. / Tot. act.: DSI contents, 1.0 mM prodrug, 37 C, release of free steroid by HPLC; for hydrolysis by DSI contents, comparison in words: homogenates of DSI contents
# Description: as §1, §2
# [7] = Recovery of steroid glycoside and free steroid from intestinal contents and tissues after intragastric administration; assay type: in vivo, Sprague-Dawley rats; conditions: for Recovery from the cecum / Recovery from the small intestine: average of 4 animals; for animals in which the administered dose reached the cecum by the time of sacrifice: sixteen rats per glucoside, sacrifice at 3-6 h
# Procedure: Male, Sprague-Dawley rats (ca 250 g) were maintained on laboratory rat chow and water ad lib. These rats were fasted overnight (16 hr.) prior to administration of glucoside or free steroid. Water bottles were removed from the cages at least 30 min prior to drug administration. Prednisolone glucoside, 2, (7.5 mg) or dexamethasone glucoside, 1, (7.5 mg) was administered by gastric intubation as a solution (0.5 mL) of water/95% ethanol (3:1). Prednisolone, 4, (5.25 mg) or dexamethasone, 3, (5.1 mg) was administered as a solution (0.5 mL) of water/95% ethanol (1:1). After the appropriate interval of time -3, 4, 5 or 6 hr.- the animals were sacrificed by carbon dioxide anesthesia followed by thoractomy. The small intestine and cecum were removed and cut into segments. Contents were separated from the tissues by rinsing the segments with cold, 0.9% saline (5.0 mL). The contents were immediately diluted to 30 mL with methanol. The tissues were suspended in 0.01 M KH2P04 (5.0 mL). Then an internal standard, either prednisolone, 4, or dexamethasone, 3, depending on the experimental steroid, was added to all the samples. Both the contents and tissues were then homogenized with a Polytron Homogenizer (Brinkman Inst. Co.) at med. speed for 1-2 min. The contents were then diluted to 40 mL total volume with methanol. The tissues were diluted to 25 mL total volume with methanol. All the samples were centrifuged (5,000 g, 15 min) and then the supernatant solutions were passed through membrane filters (0.45 micrometers, Versapor 800). The samples (1.4 mL) were then diluted with 0.01 M KH2PO4 (0.6 mL) and 20 microliters of the resulting solution injected directly onto the HPLC column for analysis.
# [8] = test system: beta-glucosidase (EC 3.2.1.21, from almonds); assay: Hydrolysis by commercial beta-glucosidase; assay type: biochemical; conditions: 37 C, acetate buffer pH 5.0
# Procedure: Prednisolone glucoside, 2, (5.0 mg) or dexamethasone glucoside, 1, (5.0 mg) was incubated at 37 °C in an […] acetate buffer, pH 5.0 (10.0 mL) with beta-glucosidase (EC 3.2.1.21, from almonds, one unit liberates 1.0 micromole of glucose from salicin per min at pH 5.0 at 370C). Prednisolone glucoside, 2, and dexamethasone glucoside, 1, were treated with 50 and 500 units of enzyme, respectively. At various times, aliquots (0.1 mL) were removed and quenched with methanol (9.9 mL).
# [9] = 4 h after administration of 7.5 mg of glucoside 1
# [10] = 5 h after administration of 7.5 mg of glucoside 1
# [11] = 6 h after administration of 7.5 mg of glucoside 1
# [12] = in vivo, po, rat, 7.5 mg glucoside intragastric, estimated from unhydrolyzed glucoside in lower small intestine at 4 h, read-out: part of an oral dose of glucoside that reached (was delivered to) the cecum
# [13] = rat, in vivo, po, 7.5 mg, 4 h after 7.5 mg glucoside, rat, read-out: administered dose recovered from the lower small intestine contents unhydrolyzed
structure (smiles),measurement,setting,value
"CC1CC2C3CCC4=CC(=O)C=CC4(C)C3(F)C(O)CC2(C)C1(O)C(=O)COC1OC(CO)C(O)C(O)C1O [Compound 1, 9 alpha-Fluoro-11 beta, 17 alpha-dihydroxy-16 alpha-methyl-3, 20-dioxopregna-l, 4-dien-21-yl beta-D-glucopyranoside]",Sp. act.,[1],141 nmoles/min/g wet weight
same,Tot. act.,[1],3.5 µmol/min
same,Km,[2]; listed as glucoside 1,2.5 µM
same,Vmax,[2]; listed as glucoside 1,2.2 µM/min/g
same,Sp. act.,[3],6.8 nmoles/min/g wet weight
same,Tot. act.,[3],0.12 µmol/min
same,Sp. act.,[4],11.0 nmoles/min/g wet weight
same,Tot. act.,[4],0.07 µmol/min
same,hydrolysis on incubation with homogenized rat feces,"[5]; 37 C, 0.01 M phosphate buffer pH 7.5",extensive hydrolysis
same,Sp. act.,[6],19.3 nmoles/min/g wet weight
same,Tot. act.,[6],0.34 µmol/min
same,Sp. act.,[6]; listed as glucoside 1,19 nmoles/min/g wet weight
same,"hydrolysis by DSI contents, comparison in words",[6],more resistant to hydrolysis than the other prodrugs
same,"hydrolysis by DSI contents, comparison in words",[6]; listed as glucoside 1,about three times slower
same,Recovery from the cecum,[7]; 3 h after administration of 7.5 mg of glucoside 1,0.21 mg
same,Recovery from the small intestine,[7]; 3 h after intragastric administration of 7.5 mg of glucoside 1,5.61 mg^a
same,Recovery from the cecum,[7]; [9],0.02 mg
same,Recovery from the small intestine,[7]; [9],5.00 mg
same,Recovery from the cecum,[7]; [10],0.23 mg
same,Recovery from the small intestine,[7]; [10],0.24 mg
same,Recovery from the cecum,[7]; [11],0.04 mg
same,Recovery from the small intestine,[7]; [11],0.94 mg
same,recovery at 4 h,[7]; [12],~60%
same,time to reach the colon,[7]; intragastric administration to rats,4 to 5 h
same,part of an oral dose of glucoside that reached (was delivered to) the cecum,"[7]; rat, 7.5 mg glucoside intragastric, estimated from unhydrolyzed glucoside in lower small intestine at 4 h, listed as glucoside 1",about half of the dose
same,recovery at 4 h,[7]; [13],59%
same,recovery at 3 h,"[7]; rat, in vivo, po, 3 h after oral administration, rat, read-out: dose recovered (intact) from the intestinal lumen",78%
same,animals in which the administered dose reached the cecum by the time of sacrifice,[7],eleven of the sixteen animals
"CC12C=CC(=O)C=C1CCC1C2C(O)CC2(C)C1CCC2(O)C(=O)COC1OC(CO)C(O)C(O)C1O [Compound 2, 11 beta, 17 alpha-Dihydroxy-3, 20-dioxopregna-l, 4-dien-21-yl beta-D-glucopyranoside]",Sp. act.,[1],265 nmoles/min/g wet weight
same,Tot. act.,[1],6.6 µmol/min
same,Km,[2]; listed as glucoside 2,4.5 µM
same,Vmax,[2]; listed as glucoside 2,2.6 µM/min/g
same,Sp. act.,[3],6.8 nmoles/min/g wet weight
same,Tot. act.,[3],0.12 µmol/min
same,Sp. act.,[4],12.2 nmoles/min/g wet weight
same,Tot. act.,[4],0.07 µmol/min
same,hydrolysis on incubation with homogenized rat feces,[5]; pH 7.5,extensive hydrolysis
same,relative rate of hydrolysis by commercial beta-glucosidase,[8]; listed as Glucoside 2,several orders of magnitude faster than was glucoside 1
same,relative rate of hydrolysis by commercial beta-glucosidase,[8]; listed as glucoside 2,much more active towards glucoside 2 than towards glucoside 1
same,Sp. act.,[6],56.8 nmoles/min/g wet weight
same,Tot. act.,[6],1.0 µmol/min
same,recovery at 4 h,[7]; [12],< 15%
same,time to reach the colon,"[7]; rat, in vivo",4 to 5 h
same,recovery at 4 h,[7]; [13],14.8%
same,animals in which the administered dose reached the cecum by the time of sacrifice,[7],eight of sixteen animals
